Counter-ions that a name gives are not always drawn. Like-named read-outs stand apart in the source and are kept apart here.
What was measured:
unmodified GL26 cells = experiment: GL26 drug cytotoxicity screens; type: cell-based, murine; settings: drug 125-1000 μM, read-out: EC50 (concentrations giving 50% killing)
Description: GL26 drug cytotoxicity (EC50, concentrations giving 50% killing) screens were performed with the results depicted in Table 2.

RG2 Glioma = experiment: WST-1 cytotoxic screening, RG2 Glioma; settings: for EC50: read-out: Effective concentration for 50% cell death (EC50)
Description: (§1) Thus, the inventors examined the in vitro effect of several ATP-dependent potassium channel agonists on cell viability in a wide range of tumor and normal cells.
(§2) Table 1 depicts the in vitro effect of KATP channel agonists on cell viability in a range of tumor and normal cells. The cytotoxic screening assay (WST-1 assay; Roche Diagnostics) results shown are the effective KATP channel agonist concentration (μM) required for 50% cell death (EC50) after exposure to the same for 24 hours. Indicated percentages are the percent viable cells remaining after treatment with 1000 μM of KATP channel agonists.

HT-29 human colon cancer = experiment: WST-1 cytotoxic screening, HT-29 Colon Cancer; settings: for EC50: read-out: Effective concentration for 50% cell death (EC50)
Description: as §1, §2

GL-26 Glioma = experiment: cells; settings: read-out: Effective concentration for 50% cell death (EC50)
Description: as §1, §2

MDA-231 Breast Cancer = experiment: WST-1 cytotoxic screening, MDA-231 Breast Cancer; type: cell-based; settings: read-out: Effective concentration for 50% cell death (EC50)
Description: as §1, §2

HBMVEC Endothelial = experiment: WST-1 cytotoxic screening, HBMVEC Endothelial; settings: read-out: Effective concentration for 50% cell death (EC50)
Description: as §1, §2

U87 human glioma = experiment: WST-1 cytotoxic screening, U87 Glioma; settings: for EC50: read-out: Effective concentration for 50% cell death (EC50)
Description: as §1, §2

CRL5904 NSC Lung Cancer = experiment: WST-1 cytotoxic screening, CRL5904 NSC Lung Cancer; settings: for EC50: read-out: Effective concentration for 50% cell death (EC50); for viability at 1000 µM: read-out: percentage of viable cells remaining
Description: as §1, §2

GL26 glioma = experiment: Survival of mice with intracranial GL26 glioma; type: in vivo; settings: for survival, C57BL/6 (WT) relative to nu/nu mice: 2.7 mg/kg days 7-9 after GL26 implantation, log-rank; for survival: 2.7 mg/kg i.v. days 7-9 after intracranial GL26 implantation, 2.7 mg/kg
Description: FIG. 1 depicts T cell-induced chemosensitization of murine glioma in accordance with an embodiment of the present invention. Fifty thousand (50,000) GL26 tumor cells in […] 1% methylcellulose were implanted i.c. into anesthetized female C57BL/6J (black lines) or nu/nu (gray lines) mice aged 6-8 weeks using a stereotactic rodent frame. Injection was 1 mm posterior and 2.5 mm lateral to the junction of the coronal and saggital sutures (bregma), at a depth of 2 mm. Vaccinated mice received 2, subcutaneous injections of 2×106 tumor lysate-pulsed, irradiated cultured DC2.4 dendritic cells in […] sterile PBS as vaccine on day 3 and 7 post tumor implantation, and a chemotherapeutic drug (dosage: 2.7 mg/kg minoxidil sulfate) was administered on days 7, 8, and 9 post tumor implantation. […] Survival differences were assessed by log-rank statistics.
FIGS. 2a and 2b depicts survival rates of mice treated with minxodil sulfate in accordance with an embodiment of the present invention. Survival of Nude (nu; gray) and C57BL/6 (WT) mice with (solid black) or without (dotted black) vaccination, treated 7-9 days after intracranial GL26 glioma implantation with vehicle (DMSO) or minoxidil sulfate (MS, 2.7 mg/kg in 50 μl, i.v.). Vaccinated mice were injected subcutaneously with […] tumor lysate-pulsed syngeneic DC2.4 dendritic cells 3 and 7 days after GL26 implantation.
GL26 glioma cells were implanted intracranially into T cell-deficient (nude) or syngeneic wild-type (C57BI/6) mice, which were treated with a chemotherapeutic drug alone or with vaccination using GL26 lysate-pulsed DC2.4 dendritic cells. […] (FIG. 1).
Chemosensitivity was modeled by growth of the GL26 glioma in syngeneic C57BL/6 (B6), vaccinated B6, and T cell-deficient nude mice. Tumor implantation was followed by chemotherapeutic drug treatment and/or DC vaccination.

9L Glioma = experiment: WST-1 cytotoxic screening, 9L Glioma; type: cell-based; settings: for EC50: treatment for 24 hours, read-out: Effective concentration for 50% cell death (EC50)
Description: as §1, §2

C6 rat glioma = experiment: WST-1 cytotoxic screening, C6 Glioma; settings: for EC50: 24 h, read-out: Effective concentration for 50% cell death (EC50)
Description: as §1, §2

[1] = WST-1 cytotoxic screening, HBMVEC Endothelial; settings: human, HBMVEC endothelial cells (non-cancer)
Description: as §1, §2

DNTC-1 Astrocytes = experiment: WST-1 cytotoxic screening, DNTC-1 Astrocytes; type: cell-based; settings: Astrocyte, treatment for 24 hours, read-out: Effective concentration for 50% cell death (EC50)
Description: as §1, §2

[2] = Homo sapiens, MDA-MB-231, treatment for 24 hours

In the case of `COc1cccc2c1C(=O)c1c(O)c3c(c(O)c1C2=O)C[C@@](O)(C(=O)CO)C[C@@H]3O[C@H]1C[C@H](N)[C@H](O)[C@H](C)O1` [Adriamycin], the EC50 (unmodified GL26 cells; Mus musculus) is reported as less than 125 µM.
Compound `N.N.O=C([O-])C1(C(=O)[O-])CCC1.[Pt+2]` [Carboplatin] has an EC50 (unmodified GL26 cells) of 310 µM.
`CC1(C)Oc2ccc(S(=O)(=O)Nc3ccccc3)cc2[C@@H](N2CCCCC2=O)[C@@H]1O` [KCO912] showed an EC50 (RG2 Glioma; RG2 Glioma, treatment for 24 hours) greater than 1000 µM, an EC50 (HT-29 human colon cancer; HT-29 Colon Cancer, treatment for 24 hours) greater than 1000 µM and an EC50 (GL-26 Glioma; GL-26 Glioma, treatment for 24 hours) greater than 1000 µM. The EC50 (MDA-231 Breast Cancer; treatment for 24 hours) was 126 µM, the EC50 (HBMVEC Endothelial; HBMVEC Endothelial, treatment for 24 hours) was greater than 1000 µM and the EC50 (U87 human glioma; U87 Glioma, treatment for 24 hours) was greater than 1000 µM. It also gave an EC50 (CRL5904 NSC Lung Cancer; CRL5904 NSC Lung Cancer, treatment for 24 hours) greater than 1000 µM.
`CN(Cc1cnc2nc(N)nc(N)c2n1)c1ccc(C(=O)N[C@@H](CCC(=O)O)C(=O)O)cc1` [Methotrexate] gave an EC50 (unmodified GL26 cells; Mus musculus) greater than 1000 µM.
With `Nc1cc(N2CCCCC2)nc(N)[n+]1OS(=O)(=O)[O-]` [Minoxidil Sulfate, minoxidil sulfate] the EC50 (unmodified GL26 cells; Mus musculus) was 595 µM, the “survival, C57BL/6 (WT) relative to nu/nu mice” value (GL26 glioma) was “increased survival” and the “survival, C57BL/6 (WT) relative to nu/nu mice” value (GL26 glioma; listed as MS) was “significantly increased”. For the same compound, the survival (GL26 glioma; T cell-deficient nude (nu/nu) hosts) was “not in nude hosts”, the survival (GL26 glioma; T cell-deficient nude (nu/nu) hosts, listed as MS) was “increased survival only in WT hosts” and the survival (GL26 glioma; wild-type C57BL/6 hosts, with or without DC vaccination) was “prolonged survival in B6”. The survival (GL26 glioma; wild-type C57BL/6 hosts, with or without DC vaccination, listed as MS) was “increased survival”, the survival (GL26 glioma; wild-type C57BL/6 hosts, with or without DC vaccination, listed as Minoxidil sulfate) was “enhanced survival” and the viability at 1000 µM (9L Glioma; after treatment with 1000 μM, read-out: percentage of viable cells remaining) was 51%. For the same compound, the EC50 (9L Glioma) was greater than 1000 µM, the EC50 (RG2 Glioma; Rattus norvegicus, RG2, 24 h) was 810 µM and the “effectiveness as a cytotoxic agent” value (HT-29 human colon cancer; HT-29 human colon cancer, WST-1 assay) was “highly effective”. The EC50 (HT-29 human colon cancer; Homo sapiens, HT-29, 24 h) was 360 µM, the EC50 (GL-26 Glioma; Mus musculus, GL26, 24 h) was 595 µM and the EC50 (MDA-231 Breast Cancer; [2]) was 930 µM. For the same compound, the “effectiveness as a cytotoxic agent” value (C6 rat glioma; C6 rat glioma, WST-1 assay) was “highly effective”, the EC50 (C6 rat glioma; Rattus norvegicus, C6 glioma) was 130 µM and the viability at 24 h, 1000 μM [1] was 84%. It also gave an EC50 (HBMVEC Endothelial; 24 h) greater than 1000 µM, an EC50 (DNTC-1 Astrocytes) of 110 µM and an EC50 (U87 human glioma; Homo sapiens, U-87 MG, 24 h) of 308 µM. For the same compound, the “effectiveness as a cytotoxic agent” value (U87 human glioma; U87 human glioma, WST-1 assay) was “highly effective”, the EC50 (CRL5904 NSC Lung Cancer; 24 h) was greater than 1000 µM and the viability at 1000 µM (CRL5904 NSC Lung Cancer) was 89%.
For `CC(N/C(=N\C#N)Nc1ccncc1)C(C)(C)C` (stereo not drawn) [Pinacidil, pinacidil], the EC50 (unmodified GL26 cells; Mus musculus) was 210 µM, the EC50 (9L Glioma) was 790 µM and the EC50 (RG2 Glioma; Rattus norvegicus, RG2, 24 h) was greater than 1000 µM. The viability at 1000 µM (RG2 Glioma; Rattus norvegicus, RG2, read-out: percentage of viable cells remaining) was 69%, the EC50 (HT-29 human colon cancer; Homo sapiens, HT-29, 24 h) was greater than 1000 µM and the viability at 1000 µM (HT-29 human colon cancer; Homo sapiens, HT-29, read-out: percentage of viable cells remaining) was 74%. For the same compound, the EC50 (GL-26 Glioma; Mus musculus, GL26, 24 h) was 210 µM, the EC50 (MDA-231 Breast Cancer; [2]) was 220 µM and the EC50 (C6 rat glioma; Rattus norvegicus, C6 glioma) was greater than 1000 µM. The viability at 1000 µM (C6 rat glioma; Rattus norvegicus, C6 glioma, read-out: percentage of viable cells remaining) was 93%, the viability at 24 h, 1000 μM [1] was 106% and the EC50 (HBMVEC Endothelial; 24 h) was greater than 1000 µM. It also gave an EC50 (U87 human glioma; Homo sapiens, U-87 MG, 24 h) greater than 1000 µM, a viability at 1000 µM (U87 human glioma; Homo sapiens, U-87 MG, read-out: percentage of viable cells remaining) of 77% and an EC50 (CRL5904 NSC Lung Cancer; 24 h) greater than 1000 µM. It also gave a viability at 1000 µM (CRL5904 NSC Lung Cancer) of 79.5%.
`Cn1nnc2c(C(N)=O)ncn2c1=O` [Temodar] showed an EC50 (unmodified GL26 cells; Mus musculus) greater than 1000 µM.
